Tested on: 931267-113-T-J1-PDC KRAS spheroid with HUVEC/MSC, viability
Assay: Anticancer human tumor 931267-113-T-J1-PDC patient-derived colon adenocarcinoma cell line growth inhibition [KRAS2]
Settings: for IC50: curve of first compound; for viability, T/C: stronger effect = lower value
In short: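 KRAS-mutant tumor cells were grown as spheroids with HUVEC endothelial cells and human MSCs as stroma. Targeted agents were tested alone and with KRAS pathway inhibitors. Doses started at or near clinical Cmax, or 10 microM, descending half-log.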

[1] = second compound 0.0316 µM, first compound 0.0316 µM
[2] = second compound 0.0316 µM, first compound 0.1 µM
[3] = second compound 0.0316 µM, first compound 0.316 µM
[4] = second compound 0.0316 µM, first compound 1 µM
[5] = second compound 0.0316 µM, first compound 3.16 µM
[6] = second compound 0.0316 µM, first compound 10 µM
[7] = second compound 0.1 µM, first compound 0.0316 µM
[8] = second compound 0.1 µM, first compound 0.1 µM
[9] = second compound 0.1 µM, first compound 0.316 µM
[10] = second compound 0.1 µM, first compound 1 µM
[11] = second compound 0.1 µM, first compound 3.16 µM
[12] = second compound 0.1 µM, first compound 10 µM
[13] = second compound 0.316 µM, first compound 0.0316 µM
[14] = second compound 0.316 µM, first compound 0.1 µM
[15] = second compound 0.316 µM, first compound 0.316 µM
[16] = second compound 0.316 µM, first compound 1 µM
[17] = second compound 0.316 µM, first compound 3.16 µM
[18] = second compound 0.316 µM, first compound 10 µM
[19] = second compound 1 µM, first compound 0.0316 µM
[20] = second compound 1 µM, first compound 0.1 µM
[21] = second compound 1 µM, first compound 0.316 µM
[22] = second compound 1 µM, first compound 1 µM
[23] = second compound 1 µM, first compound 3.16 µM
[24] = second compound 1 µM, first compound 10 µM
[25] = second compound 3.16 µM, first compound 0.0316 µM
[26] = second compound 3.16 µM, first compound 0.1 µM
[27] = second compound 3.16 µM, first compound 0.316 µM
[28] = second compound 3.16 µM, first compound 1 µM
[29] = second compound 3.16 µM, first compound 3.16 µM
[30] = second compound 3.16 µM, first compound 10 µM
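Further: compound exposure lasted 7 days before the readout.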
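Wherever viability, T/C is given: 100% = DMSO vehicle control viability.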

Compound	IC50 (second compound 0.0316 µM) [µM]	IC50 (second compound 0.1 µM) [µM]	IC50 (second compound 0.316 µM) [µM]	IC50 (second compound 1 µM) [µM]	IC50 (second compound 3.16 µM) [µM]	viability, T/C [1] [%]	viability, T/C [2] [%]	viability, T/C [3] [%]	viability, T/C [4] [%]	viability, T/C [5] [%]	viability, T/C [6] [%]	viability, T/C [7] [%]	viability, T/C [8] [%]	viability, T/C [9] [%]	viability, T/C [13] [%]	viability, T/C [14] [%]	viability, T/C [19] [%]	viability, T/C [20] [%]	viability, T/C [25] [%]	viability, T/C [26] [%]	further results
CC(C)NCC(C(=O)N1CCN(c2ncnc3c2C(C)CC3O)CC1)c1ccc(Cl)cc1 (stereo not given) + C=CC(=O)N1CCN(c2nc(OCC3CCCN3C)nc3c2CCN(c2cccc4cccc(C)c24)C3)CC1CC#N	> 10	6.28	5.1	1.81	< 0.0316	111	86	72.4	79.8	64.3	50	96.8	86.4	83.1	100	89.6	79.4	83.1	1.12	0.47	viability, T/C [10]: 101%; viability, T/C [11]: 62.1%; viability, T/C [12]: 41.8%; viability, T/C [15]: 95.4%; viability, T/C [16]: 64.7%; viability, T/C [17]: 73%; viability, T/C [18]: 30.4%; viability, T/C [21]: 64.5%; viability, T/C [22]: 60.1%; viability, T/C [23]: 42.2%; viability, T/C [24]: 18.4%; viability, T/C [27]: 0.29%; viability, T/C [28]: 0.37%; viability, T/C [29]: 0.61%; viability, T/C [30]: 0.46%
CC(C)n1nc(-c2ccc3oc(N)nc3c2)c2c(N)ncnc21 + C=CC(=O)N1CCN(c2nc(OCC3CCCN3C)nc3c2CCN(c2cccc4cccc(C)c24)C3)CC1CC#N	0.0073	0.00623	0.00732	0.00574	< 0.000316	26.6	21.8					22.6	19.9		22.7	18.3	24.8	21.6	0.27	1.47	viability, T/C (second compound 0.0316 µM, first compound 0.000316 µM): 91.9%; viability, T/C (second compound 0.0316 µM, first compound 0.001 µM): 89.1%; viability, T/C (second compound 0.0316 µM, first compound 0.00316 µM): 71.1%; viability, T/C (second compound 0.0316 µM, first compound 0.01 µM): 41.9%; viability, T/C (second compound 0.1 µM, first compound 0.000316 µM): 111%; viability, T/C (second compound 0.1 µM, first compound 0.001 µM): 91.8%; viability, T/C (second compound 0.1 µM, first compound 0.00316 µM): 65.2%; viability, T/C (second compound 0.1 µM, first compound 0.01 µM): 40.7%; viability, T/C (second compound 0.316 µM, first compound 0.000316 µM): 89.6%; viability, T/C (second compound 0.316 µM, first compound 0.001 µM): 95.9%; viability, T/C (second compound 0.316 µM, first compound 0.00316 µM): 67.1%; viability, T/C (second compound 0.316 µM, first compound 0.01 µM): 44.6%; viability, T/C (second compound 1 µM, first compound 0.000316 µM): 106%; viability, T/C (second compound 1 µM, first compound 0.001 µM): 78.2%; viability, T/C (second compound 1 µM, first compound 0.00316 µM): 62.9%; viability, T/C (second compound 1 µM, first compound 0.01 µM): 41.6%; viability, T/C (second compound 3.16 µM, first compound 0.000316 µM): 18.4%; viability, T/C (second compound 3.16 µM, first compound 0.001 µM): 0.63%; viability, T/C (second compound 3.16 µM, first compound 0.00316 µM): 13.2%; viability, T/C (second compound 3.16 µM, first compound 0.01 µM): 0.24%
CC1(C)CCC(CN2CCN(c3ccc(C(=O)NS(=O)(=O)c4ccc(NCC5CCOCC5)c([N+](=O)[O-])c4)c(Oc4cnc5[nH]ccc5c4)c3)CC2)=C(c2ccc(Cl)cc2)C1 + C=CC(=O)N1CCN(c2nc(OCC3CCCN3C)nc3c2CCN(c2cccc4cccc(C)c24)C3)CC1CC#N	1.96	2.36	1.9	1.55	< 0.0316	107	93.6	102	83	26.2	0.37	110	120	97.5	114	94.8	102	84.3	0.38	0.51	viability, T/C [10]: 106%; viability, T/C [11]: 31%; viability, T/C [12]: 0.82%; viability, T/C [15]: 89.3%; viability, T/C [16]: 94.6%; viability, T/C [17]: 14.8%; viability, T/C [18]: 0.28%; viability, T/C [21]: 94.5%; viability, T/C [22]: 78%; viability, T/C [23]: 4.65%; viability, T/C [24]: 0.18%; viability, T/C [27]: 0.75%; viability, T/C [28]: 0.2%; viability, T/C [29]: 0.34%; viability, T/C [30]: 0.26%
